Assay results from patent US10501800B2, “Breast cancer prognosis” (Regents of the University of Minnesota, priority 2012, dated 2019).
“Also recorded” adds a separate entry of the source.

Tests used:
[1] = system: PR target genes in T47D cells expressing WT PR, SUMO-deficient PR (KR) or empty vector; test: Gene expression profiling (Illumina HT-12v4) of T47D cell lines treated with progesterone or antiprogestins; format: cell-based, human
Protocol: T47D cells stably expressing pIRES-neo3 empty vector, WT or KR PR were serum starved in modified IMEM (Gibco, catalog #A10488) for 1 day, treated with R5020 (10^−8 M) or vehicle control for 6 h before RNA extraction using a RNeasy kit (QIAgen, catalog #74104). Six h of progestin treatment allowed for substantial PR-dependent gene expression as compared to prior studies (Jacobsen et al., 2005; Richer et al., 2002). DNase I treated (QIAgen, catalog #79254) RNA samples from duplicate experiments were prepared for expression analysis using the Illumina HT-12v4 bead chip platform according to manufacture's protocols. Data were analyzed within R software using the Bioconductor (Gentleman et al., 2004) package called lumi where raw intensities were log2 transformed and quantile normalized. Differentially expressed genes were analyzed using the limma package, where empirical Bayes was used to better estimate the variance of the genes. Gene expression data presented contain log2 normalized intensities and biological comparisons presented (e.g. R5020/vehicle) contain log2 fold change with the Benjamini and Hochberg (BH) adjusted P value (Benjamini and Hochberg, 1995). To generate the heat map in FIG. 1C, unsupervised hierarchical clustering of genes was carried out using heatmap. 2 function in the R package gplots. Clustering was performed using Euclidean distance and complete linkage. Rows were scaled to have mean zero and standard deviation equal to one.
Gene expression profiles in T47D cell lines treated with antiprogestins were obtained using identical methods as described above, except for these notable differences. After serum starvation, cells stably expressing empty vector, WT, or KR PR were treated for 6 hours under one of eight possible conditions: (1) ethanol (vehicle control), (2) progesterone (10^−8 M), (3) RU486 (10^−7 M), (4) aglepristone (10^−7 M), (5) onapristone (10^−7 M), (6) RU486 (10^−7 M) plus progesterone (10^−8 M), (7) aglepristone (10^−7 M) plus progesterone (10^−8 M), or (8) onapristone (10^−7 M) plus progesterone (10^−8 M). Gene expression levels were measured, normalized, analyzed, and heat maps were generated using the methods described above.
Raw microarray data from two independent microarray experiments (both performed using the Illumina HT-12v4 platform described above) were combined and normalized together within R software using the Bioconductor (Gentleman et al., 2004) package called lumi where raw intensities were log 2 transformed and quantile normalized.
Sample Sizes & Composition: For the first analysis, two KR cell replicates were used that had been stimulated with R5020 a synthetic progestin in the first experiment and three KR cell replicates that had been stimulated with progesterone in the second experiment. The same was accomplished regarding the corresponding WT cell replicates. Pertaining to the first analysis, therefore, a sample size of n=5 was used for each of the two groups (KR & WT). Regarding the second analysis, we used three KR cell replicates that had been co-treated with progesterone plus onapristone in the second experiment; and we used three WT cell replicates that had been co-treated with progesterone plus onapristone also in the second experiment (n=3 for each of the two groups). Regarding the third analysis, we used three KR cell replicates that had been co-treated with progesterone plus RU486 in the second experiment; and we used three WT cell replicates that had been co-treated with progesterone plus RU486 also in the second experiment (n=3 for each of the two groups). Regarding the fourth analysis, three KR cell replicates was used that had been co-treated with progesterone plus onapristone; and three WT cell replicates were used that had been treated with vehicle control (ethanol) (n=3 for each of the two groups). […]

breast cancer = details: in vivo; cited from earlier work
[2] = system: PR target genes (MSX2, RGS2, MAP1A, PDK4) in MCF-7 cells; test: RT-qPCR of PR target genes in MCF-7 cells stably expressing WT or KR PR; format: cell-based, human; details: R5020 10^−8 M plus RU486 10^−7 M, 6 h
BT-474 tumor = details: xenograft models; cited from earlier work
[3] = system: PR target genes (CHN2, RGS2, ACOT6) in BT-474 human breast cancer cells; test: RT-qPCR of PR target genes in BT-474 cells, with or without MEK inhibitor; format: cell-based; details: R5020 10^−8 M plus RU486 10^−7 M, 6 h
Protocol: For reverse transcription quantitative polymerase chain reaction (RT-qPCR) assays, 5×10^5 cells/well were plated in 6-well dishes, serum starved in modified IMEM for 1 day before treatments (see individual figures). RNA was extracted using TriPure reagent (Roche, catalog #11667157001) and cDNA was created using the Transcriptor cDNA first-strand cDNA synthesis kit (Roche, catalog #04897030001). Relative expression levels were determined by qPCR assays performed on a Roche LightCycler II using SYBR green master-mix (Roche, catalog #04887352001). Target gene quantification levels were normalized to the expression of standard housekeeper genes: TBP, ACTB, and/or GAPDH. For cells expressing inducible PR, the protocol was the same as above, except prior to ligand treatments, the cells were induced with AP21967 (10^−9 M) for 2 d.
For experiments using MEK inhibitors, BT-474 cells were plated in […] dishes at 5×10^5 cells/well. One day later, the cells were washed and serum starved in modified IMEM for 1d. These cells were pre-treated with the MEK inhibitor U0126 (5 uM, EMD Chemicals, catalog #662005) for 30 min R5020 (10^−8 M) and/or RU486 (10^−7 M) was then added to cell culture wells for 6 h before RNA/protein isolation and RT-qPCR/western blotting was performed, as described above.

BT-474 cells = test: MTT proliferation assay in BT-474 cells; format: cell-based, human; details: MTT assays over six days in vitro; data not shown
Protocol: Cell proliferation was measured using MTT assays (3-[4,5-dimethylthiazol-2-yl]-2,5-diphenyltetrazolium bromide, Sigma catalog #M2128). In 24-well plates, 1×10^4 cells/well were plated in cMEM (inducible PR expression was induced with AP21967 (10^−9 M) for 2 days), cells were washed and steroid starved in modified IMEM supplemented with 5% dextran-coated charcoal-treated (DCC) FBS for 1 day before the addition of R5020 (10^−8 M). At days 0, 2, 4, 6, cell proliferation was determined by adding 60 ul MTT (5 mg/ml) to each 0.5 ml cell culture well for 3 hours, medium was carefully removed and solublization solution (90% v/v DMSO/PBS) was added to lyse the cells. Lysate absorbance (650 and 570 nm) was measured using a plate reader. 650 nm measurements were subtracted from 570 nm measurements and sample means were normalized to day zero.

## CC#C[C@]1(O)CC[C@H]2[C@@H]3CCC4=CC(=O)CCC4=C3[C@@H](c3ccc(N(C)C)cc3)C[C@@]21C [RU486, (10S,11S,14S,15S,17R)-17-[4-(dimethylamino)phenyl]-14-hydroxy-15-methyl-14-(prop-1-yn-1-yl)tetracyclo[8.7.0.0^ {2,7}.0^{11,15}]heptadeca-1,6-dien-5-one]
[1]; T47D cells expressing SUMO-deficient PR (KR), antiprogestin 10^−7 M alone or plus progesterone 10^−8 M, 6 h
  expression of progesterone-regulated PR target genes: caused many PR target genes to become upregulated
[1]; both cell lines co-treated with progesterone plus the antiprogestin
  number of genes significantly differentially expressed between KR and WT cells: 7 genes
[1]; both cell lines co-treated with progesterone plus the antiprogestin, with the exception of one gene (CDH10)
  significant differential expression of the 15 biomarker genes between KR and WT cells: completely annulled
[1]; cells expressing hyperactive / SUMO-deficient PR (KR)
  agonistic activity: substantial agonistic activity; also recorded: agonistic properties
Breast cancer
  outcome of phase II clinical trials as a breast cancer treatment: unsuccessful
[2]
  R5020-induced mRNA expression of MSX2, RGS2, MAP1A and PDK4: completely abolished
BT-474 tumor
  BT-474 tumor growth: dramatically inhibits
[3]
  R5020-induced expression of CHN2, RGS2 and ACOT6: entirely blocked
BT-474 cells
  BT-474 cell proliferation: significantly blocks
